These results are taken from US4654348A, “Pyrazolo[4,3-d]pyrimidine derivative, process for its production, antihyperlipidemic agent containing it, its intermediate, and process for the production of the intermediate” (Nissan Chemical Industries Ltd., priority 1984, dated 1987).

The subject of series [1] is emulsion-induced hyperlipidemic rats. In words: Test 1: antihyperlipidemic activity in emulsion-induced hyperlipidemic rats (serum Chol, HDL-Chol, liver weight). The series is classed as in vivo, male S.D. rats. The conditions noted are these: 3 days, vs control; for change in vivo at 300 mg/kg / inhibition in vivo at 300 mg/kg: Rattus norvegicus, po, 72 h, 300 mg/kg/day via stomach tube; for change in vivo at 300 mg/kg: read-out: Increase rate of serum HDL-Chol; for inhibition in vivo at 300 mg/kg: read-out: Reduction rate of serum Chol.; for Degree of hepatomegaly (change rate of the liver weight): liver weight per 100 g body weight, 300 mg/kg/day. As to the method: The antihyperlipidemic activity in emulsion-induced hyperlipidemic rats:
Male S.D. rats weighing 80-90 g (4 weeks old) were used. They were divided into groups of 5 to 6 rats each. The test compounds suspended in 0.5% CMC-Na(carboxymethyl cellulose sodium salt) were given to the rats in a daily dose of 4 ml/kg (i.e. 300 mg/kg of the test compounds) via stomach tube every 10:00 a.m. After 30 min., lipids emulsion having the following composition was orally given to the rats in an amount of 2.5 ml per rat.
Cholic acid sodium salt 10.0 g
During the experimental period of 3 days, the rats were fed on a standard commercial diet and water ad libitum. […] The total cholesterol and HDL cholesterol were measured.
The weight of the liver was measured. To the control group, only the aqueous CMC-Na solution and the lipids emulsion were given.
The fractionation of lipoproteins was conducted by a dextran sulfate-MgCl2 precipitation method.
Cholesterol in serum was measured by means of a cholesterol measuring kit (Cholesterol C-Test Wako, manufactured by Wako Junyaku Co., Ltd.), and cholesterol in HDL was measured by means of NC Hi-Set, manufactured by Nippon Chemiphar Co., Ltd.
Further, the reduction rate of Chol was calculated by the following equation. [formula] where A is the amount of serum Chol (mg/dl) of the control group, and B is the amount of serum Chol (mg/dl) of the group to which the therapeutic agent was administered.
Likewise, the increase rate of HDL-Chol was calculated by the following equation. [formula] where C is the amount of serum HDL-Chol (mg/dl) of the control group, and D is the amount of serum HDL-Chol (mg/dl) of the group to which the therapeutic agent was administered.
The degree of hepatomegaly (i.e. the change rate of the liver weight) was calculated by the following equation. [formula] where E is the liver weight (g) per 100 g of the body weight of the control group, and F is the liver weight (g) per 100 g of the body weight of the group to which the therapeutic agent was administered.

Series [2] can be described thus: Test 2: Acute toxicity (mortality after seven days). The series is classed as in vivo. The conditions noted are these: mouse, in vivo, po, 8000 mg/kg p.o., male ddY mice. As to the method: The test compounds suspended in 0.5% CMC-Na were administered p.o. to male ddY mice. The acute toxicity was determined based on the mortality after seven days. In respect of the compounds of Examples 1, 9, 10 and 11 of the present invention, the mortality was 0% even at a dose of as high as 8000 mg/kg by oral administration.

The mortality is the percentage killed. A high value points to fewer survivors.

In the case of `CCCCC/C=C\C/C=C\CCCCCCCCOc1c2ncnc(SCC(=O)OCC)c2nn1C` [Example 10, 2-Methyl-3-linoleyloxy-7-ethoxycarbonylmethylthio-pyrazolo[4,3-d]pyrimidine], in series [1], the change in vivo at 300 mg/kg amounted to 13%, the inhibition in vivo at 300 mg/kg is 76% and the “Degree of hepatomegaly (change rate of the liver weight)” value is reported as “+12%”. Further, the mortality at 168 h in series [2] was 0%.
Take `C=CCCCCCCCCOc1c2ncnc(SCC(=O)OCC)c2nn1C` [Example 45, 2-methyl-3-(9-decenyloxy)-7-ethoxycarbonylmethylthio-pyrazolo[4,3-d]pyrimidine]: the inhibition in vivo at 300 mg/kg in series [1] was 22%.
As to `CCCCCCCCCCCCCCCCOc1c2ncnc(SC(C)(C)C(=O)OCC)c2nn1C` [Example 26, 2-Methyl-3-n-hexadecyloxy-7-(1-ethoxycarbonyl-1-methyl-ethylthio)pyrazolo [4,3-d]pyrimidine], the inhibition in vivo at 300 mg/kg in series [1] is 16%.
Same read-out and setting: under `CCCCCCCCCCCCCCOc1c2ncnc(SCC(=O)OCC)c2nn1C` [Example 3] stands 41%; under `C=CCSc1ncnc2c(OCCCCCCCC/C=C\C/C=C\CCCCC)n(C)nc12` [Example 64, 2-Methyl-3-linoleyloxy-7-allylthio-pyrazolo[4,3-d]pyrimidine], 12%.
Turning to `CCCCCCCC/C=C\CCCCCCCCCCCCOc1c2ncnc(SCC(=O)OCC)c2nn1C` [Example 69, 2-Methyl-3-erucyloxy-7-ethoxycarbonylmethylthio-pyrazolo[4,3-d]pyrimidine], the inhibition in vivo at 300 mg/kg in series [1] stood at 59%.
`CCCCCCCCCCCCCCCCOc1c2ncnc(SCC(=O)OC)c2nn1C` [Example 15, 2-Methyl-3-n-hexadecyloxy-7-methoxycarbonylmethylthio-pyrazolo[4,3-d]pyrimidine]: in series [1], the inhibition in vivo at 300 mg/kg turned out to be 53%.
Still for that read-out and setting: next, `CCCCC/C=C\C/C=C\CCCCCCCCOc1c2ncnc(SCC(=O)OC)c2nn1C` [Example 54, 2-Methyl-3-linoleyloxy-7-methoxycarbonylmethylthio-pyrazolo[4,3-d]pyrimidine]: 79%.
With `CCOC(=O)CSc1ncnc2c(OCCOCc3ccc(CC)cc3)n(C)nc12` [Example 37, 2-Methyl-3-[2-(4-ethylbenzyloxy)ethoxy]7-ethoxycarbonylmethylthio-pyrazolo[4,3-d]pyrimidine], the inhibition in vivo at 300 mg/kg in series [1] turned out to be 37%.
On the same count and under the same terms, next, `CCCCOCCOCCOc1c2ncnc(SCC(=O)OCC)c2nn1C` [Example 39, 2-Methyl-3-(3,6-dioxadecyloxy)-7-ethoxycarbonylmethylthio-pyrazolo[4,3-d]pyrimidine]: 11%; `CCCCCCCOc1c2ncnc(SCC(=O)OCC)c2nn1-c1ccccc1` [Example 31, 2-Phenyl-3-n-heptyloxy-7-ethoxycarbonylmethylthio-pyrazolo[4,3-d]pyrimidine]: 51%.
Consider `CCCCCCCCCCCCCCCCOc1c2ncnc(SCC(=O)c3ccccc3)c2nn1C` [Example 18, 2-Methyl-3-n-hexadecyloxy-7-benzoylmethylthio-pyrazolo[4,3-d]pyrimidine], for which, in series [1], the change in vivo at 300 mg/kg is 42%, the inhibition in vivo at 300 mg/kg was 35% and the “Degree of hepatomegaly (change rate of the liver weight)” value is listed as “+4%”.
Consider `CCCCCCCCOc1c2ncnc(SC(C)(C)C(=O)OCC)c2nn1C` [Example 27, 2-Methyl-3-n-octyloxy-7-(1-ethoxycarbonyl1-methyl-ethylthio)-pyrazolo[4,3-d]pyrimidine], for which, in series [1], the inhibition in vivo at 300 mg/kg was 16%.
The same measure, in the same setting: under `CCCCCCCC/C=C\CCCCCCCCOc1c2ncnc(SCC(=O)OCC)c2nn1-c1ccccc1` [Example 50, 2-Phenyl-3-oleyloxy-7-ethoxycarbonylmethylthio-pyrazolo[4,3-d]pyrimidine] stands 35%; under `CCCCCCCCCCCCCCCCOc1c2ncnc(SCC(=O)OC(C)C)c2nn1C` [Example 16, 2-Methyl-3-n-hexadecyloxy-7-isopropoxycarbonylmethylthio-pyrazolo[4,3-d]pyrimidine], 26%.
Same read-out and setting: next, `CCCCSCCOc1c2ncnc(SCC(=O)OCC)c2nn1-c1ccccc1` [Example 49, 2-Phenyl-3-(3-thia-heptyloxy)-7-ethoxycarbonylmethylthio-pyrazolo[4,3-d]pyrimidine]: 14%; `CCCCCCCCCCCCCCCCOc1c2ncnc(SCC(=O)OCC)c2nn1-c1ccccc1` [Example 52, 2-Phenyl-3-n-hexadecyloxy-7-ethoxycarbonylmethylthio-pyrazolo[4,3-d]pyrimidine]: 30%; `CCOC(=O)CSc1ncnc2c(OCCCC(C)=O)n(C)nc12` [Example 46, 2-Methyl-3-(4-oxo-pentyloxy)-7-ethoxycarbonymethylthio-pyrazolo[4,3-d]pyrimidine]: 11%.
Regarding `CCCCCCCCCCCCCCCCOc1c2ncnc(SCC(=O)OCCCC)c2nn1C` [Example 33, 2-Methyl-3-n-hexadecyloxy-7-n-butoxycarbonylmethylthio-pyrazolo[4,3-d]pyrimidine], the inhibition in vivo at 300 mg/kg in series [1] was 39%.
On the same count and under the same terms, under `CCCCC/C=C\C/C=C\CCCCCCCCOc1c2ncnc(SCCCCCCCCCCC(=O)OCC)c2nn1C` [Example 61] stands 35%.
As for `CCCCCCCCCCCCCCCCCCOc1c2ncnc(SCC(=O)OCC)c2nn1C` [Example 6, 2-Methyl-3-n-octadecyloxy-7-ethoxycarbonylmethylthio-pyrazolo[4,3-d]pyrimidine], in series [1], the change in vivo at 300 mg/kg was determined as 9%, the inhibition in vivo at 300 mg/kg worked out at 31% and the “Degree of hepatomegaly (change rate of the liver weight)” value is recorded as -1%.
Regarding `CCCCCCCCCCCCOc1c2ncnc(SC(C)(C)C(=O)OCC)c2nn1C` [Example 28, 2-Methyl-3-n-dodecyloxy-7-(1-ethoxycarbonyl-1-methyl-ethylthio)-pyrazolo[4,3-d]pyrimidine], the inhibition in vivo at 300 mg/kg in series [1] was 36%.
The same measure, in the same setting: next, `CCOC(=O)CSc1ncnc2c(OC3CCC(C4CCCCC4)CC3)n(C)nc12` (stereo not shown) [Example 34, 2-Methyl-3-(4-cyclohexyl-cyclohexyloxy)-7-ethoxycarbonylmethylthio-pyrazolo[4,3-d]pyrimidine]: 12%; `CCOC(=O)CSc1ncnc2c(OCCOCc3ccc(C(C)(C)C)cc3)n(-c3ccccc3)nc12` [Example 48, 2-Phenyl-3-[2-(4-t-butylbenzyloxy)ethyloxy]-7-ethoxycarbonylmethylthio-pyrazolo[4,3-d]pyrimidine]: 34%.
On the same count and under the same terms, under `CCCCCCCCC#CCCCCCCCCOc1c2ncnc(SCC(=O)OCC)c2nn1C` [Example 44, 2-Methyl-3-(9-octadecynyloxy)-7-ethoxycarbonylmethylthio-pyrazolo[4,3-d]pyrimidine] stands 39%.
Consider `CCCCCCCCCCCCCCCCOc1c2ncnc(SCCCCCC)c2nn1C` [Example 23, 2-Methyl-3-n-hexadecyloxy-7-n-hexylthiopyrazolo[4,3-d]pyrimidine], for which, in series [1], the change in vivo at 300 mg/kg was 30%, the inhibition in vivo at 300 mg/kg was determined as 39% and the “Degree of hepatomegaly (change rate of the liver weight)” value is 0%.
As to `CCCCCCCCCCCCCCCCOc1c2ncnc(SCCCC(=O)OCC)c2nn1C` [Example 17, 2-Methyl-3-n-hexadecyloxy-7-(3-ethoxycarbonylpropylthio)-pyrazolo[4,3-d]pyrimidine], in series [1], the inhibition in vivo at 300 mg/kg is 49% and the “Degree of hepatomegaly (change rate of the liver weight)” value is on record as “+5%”.
Regarding `CCCCCCCC/C=C/CCCCCCCCOc1c2ncnc(SCC(=O)OCC)c2nn1C` [Example 70, 2-Methyl-3-elaidyloxy-7-ethoxycarbonylmethylthio-pyrazolo[4,3-d]pyrimidine], the inhibition in vivo at 300 mg/kg in series [1] came to 63%.
Still for that read-out and setting: under `CCCCCCCCOc1c2ncnc(SCC(=O)OCC)c2nn1C` [Example 42, 2-Methyl-3-n-octyloxy-7-ethoxycarbonylmethylthio-pyrazolo[4,3-d]pyrimidine] stands 32%; under `CCCCCCC#CCCOc1c2ncnc(SCC(=O)OCC)c2nn1C` [Example 74, 2-Methyl-3-(3-decynyloxy)-7-ethoxycarbonylmethylthio-pyrazolo[4,3-d]pyrimidine], 16%.
